Earlier results on 1 compound are cited in patent US5691307A, “O^6 -substituted guanine compositions and methods for depleting O^6” (The United States of America as represented by the …, priority 1994, dated 1997).

Entries after “also recorded” stand apart in the source; their conditions may differ.

One data set concerns human tumor xenografts. The following applies: nude mice bearing human tumor xenografts; cited from earlier work. On the technique in general: In xenograft studies the graft and the host belong to different species.
For data set [1] the following is noted: athymic mice; cited from earlier work.
Data set [2] has as its system human colon cancer cells (HT29). To be noted: HT29, in vitro; cited from earlier work.
The subject of data set [3] is AGT activity of D341MED xenograft tumors. To be noted: i.p., sc D341MED; cited from earlier work.
The next data set concerns AGT. The following applies: cited from earlier work.
The subject of data set [4] is malignant glioma cells (SF767). The following applies: SF767, in vitro; cited from earlier work.
In data set [5] the test system is intracranial (ic) xenografts of D341MED. The following applies: athymic mice; cited from earlier work.
The subject of data set [6] is D341MED, a human medulloblastoma xenograft. The following applies: sc D341MED, cited from earlier work.
Data set [7] concerns D245MG, a human glioma xenograft. The following applies: sc D245MG, cited from earlier work.
The next data set deals with melanoma cells (M19-mel). The following applies: in vitro; cited from earlier work.
The next data set concerns prostate tumors. To be noted: cited from earlier work.
The next data set deals with tumor cells. To be noted: cited from earlier work.

Take `Nc1nc(OCc2ccccc2)c2nc[nH]c2n1` [O^6 -benzylguanine]: the “therapeutic effectiveness of chloroethylating nitrosoureas after pretreatment” value with human tumor xenografts is “dramatic increase in the therapeutic effectiveness of chloroethylating nitrosoureas in vivo”. The “toxicity of BCNU after O^6-benzylguanine pretreatment” value in data set [1] was “increased the toxicity of BCNU significantly”. In data set [2], the “sensitivity to chloroethylating and methylating anti-tumor drugs” value (“sensitivity” below) was “increase the sensitivity”. For the same compound, in data set [3], the “AGT activity of the tumors” value is “undetectable”, the “time to undetectable tumor AGT activity” value is at most 1 h and the “time until which tumor AGT remained depleted” value is 36 h. The “potency as AGT depleter” value with AGT was “more potent”. Also, the “AGT depletion (shown previously)” value with AGT (literature) was “effective in depleting AGT; also recorded: dramatic and rapid depletion of cellular alkyltransferase activity”. Also, the “sensitivity” value in [4] is “increase the sensitivity”. Also, the “survival, BCNU 1 hour after O^6-benzylguanine” value in data set [5] is “significantly increased survival as compared to that of control, BCNU alone, O^6 -benzylguanine alone and O^6 -benzylguanine followed 36 hours later by BCNU”. In addition, in [6] (with BCNU), the “therapeutic effect, lower pretreatment dose of O^6-benzylguanine” value is given as “significantly lesser therapeutic effect”. Further, in data set [6], the “therapeutic effect, BCNU 1 hour after O^6-benzylguanine” value is listed as “significantly greater effect than was seen with either the same or a higher dose of BCNU alone” and the “therapeutic effect, BCNU delayed until 36 hours after O^6-benzylguanine” value is reported as “greatly reduced effect that was not significantly different than that produced by control or BCNU alone”. Also, the “therapeutic effect, higher doses of O^6-benzylguanine” value in data set [7] (with BCNU) is “greater therapeutic effect”. Besides, in data set [7], the “therapeutic effect of combination regimens vs equitoxic dose of BCNU alone” value was “None of the combination regimens, however, were as effective as an equitoxic dose of BCNU alone” and the “therapeutic effect, O^6-benzylguanine 1 hour prior to BCNU” value was “significantly greater effect than was seen with BCNU treatment alone”. The “sensitivity” value in the data set on melanoma cells (M19-mel) was “increase the sensitivity”. Besides, the “anti-tumor effect of BCNU after O^6-benzylguanine pretreatment” value in the data set with prostate tumors (prostate cancer) is given as “enhanced”. In the data set on prostate tumors (rats bearing prostate tumors, O^6-benzylguanine one hour prior to BCNU, or BCNU alone at equal dose), the “regression in tumor growth” value is “regression in tumor growth”. Besides, the “enhancement in the cytotoxic response to alkylating agents” value with tumor cells is listed as “enhancement in the cytotoxic response to chemotherapeutic alkylating agents”.
